Legend:
CRE1/AHK4 = CRE1/AHK4 (Arabidopsis thaliana, UniProt Q9C5U0); assay: E. coli receptor activation assay; assay type: cell-based
AHK3 = molecular target: T1, AHK3 (Arabidopsis thaliana, UniProt Q9C5U1); assay: E. coli receptor activation assay; assay type: cell-based
T1 sequence (Q9C5U1 1-1036): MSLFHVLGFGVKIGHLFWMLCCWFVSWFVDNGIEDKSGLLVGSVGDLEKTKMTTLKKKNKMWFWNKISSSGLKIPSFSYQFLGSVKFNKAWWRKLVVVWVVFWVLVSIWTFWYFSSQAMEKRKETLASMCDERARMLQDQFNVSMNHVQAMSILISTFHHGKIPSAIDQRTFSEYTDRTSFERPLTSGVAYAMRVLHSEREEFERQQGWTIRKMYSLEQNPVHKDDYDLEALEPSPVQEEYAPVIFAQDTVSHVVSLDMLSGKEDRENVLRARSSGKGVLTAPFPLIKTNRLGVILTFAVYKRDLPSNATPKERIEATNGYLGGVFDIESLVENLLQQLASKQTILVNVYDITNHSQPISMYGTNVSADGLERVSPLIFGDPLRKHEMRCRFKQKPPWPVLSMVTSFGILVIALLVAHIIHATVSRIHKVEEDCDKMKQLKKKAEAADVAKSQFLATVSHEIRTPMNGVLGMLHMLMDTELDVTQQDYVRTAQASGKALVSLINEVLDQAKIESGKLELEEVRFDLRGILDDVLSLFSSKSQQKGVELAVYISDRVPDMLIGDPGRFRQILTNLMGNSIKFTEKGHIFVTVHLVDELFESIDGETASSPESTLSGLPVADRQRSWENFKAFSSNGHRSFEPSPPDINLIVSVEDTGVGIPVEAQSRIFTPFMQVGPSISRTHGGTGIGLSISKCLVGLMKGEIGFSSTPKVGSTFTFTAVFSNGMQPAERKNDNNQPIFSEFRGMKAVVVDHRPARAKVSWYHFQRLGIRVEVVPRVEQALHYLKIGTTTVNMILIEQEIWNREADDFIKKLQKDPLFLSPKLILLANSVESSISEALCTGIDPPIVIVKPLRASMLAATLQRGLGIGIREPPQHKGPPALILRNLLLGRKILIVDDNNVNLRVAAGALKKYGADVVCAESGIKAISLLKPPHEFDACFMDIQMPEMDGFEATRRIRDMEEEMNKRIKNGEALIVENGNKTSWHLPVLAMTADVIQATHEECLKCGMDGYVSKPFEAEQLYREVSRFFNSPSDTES

CRE1/AHK4, sequence (Q9C5U0 whole entry): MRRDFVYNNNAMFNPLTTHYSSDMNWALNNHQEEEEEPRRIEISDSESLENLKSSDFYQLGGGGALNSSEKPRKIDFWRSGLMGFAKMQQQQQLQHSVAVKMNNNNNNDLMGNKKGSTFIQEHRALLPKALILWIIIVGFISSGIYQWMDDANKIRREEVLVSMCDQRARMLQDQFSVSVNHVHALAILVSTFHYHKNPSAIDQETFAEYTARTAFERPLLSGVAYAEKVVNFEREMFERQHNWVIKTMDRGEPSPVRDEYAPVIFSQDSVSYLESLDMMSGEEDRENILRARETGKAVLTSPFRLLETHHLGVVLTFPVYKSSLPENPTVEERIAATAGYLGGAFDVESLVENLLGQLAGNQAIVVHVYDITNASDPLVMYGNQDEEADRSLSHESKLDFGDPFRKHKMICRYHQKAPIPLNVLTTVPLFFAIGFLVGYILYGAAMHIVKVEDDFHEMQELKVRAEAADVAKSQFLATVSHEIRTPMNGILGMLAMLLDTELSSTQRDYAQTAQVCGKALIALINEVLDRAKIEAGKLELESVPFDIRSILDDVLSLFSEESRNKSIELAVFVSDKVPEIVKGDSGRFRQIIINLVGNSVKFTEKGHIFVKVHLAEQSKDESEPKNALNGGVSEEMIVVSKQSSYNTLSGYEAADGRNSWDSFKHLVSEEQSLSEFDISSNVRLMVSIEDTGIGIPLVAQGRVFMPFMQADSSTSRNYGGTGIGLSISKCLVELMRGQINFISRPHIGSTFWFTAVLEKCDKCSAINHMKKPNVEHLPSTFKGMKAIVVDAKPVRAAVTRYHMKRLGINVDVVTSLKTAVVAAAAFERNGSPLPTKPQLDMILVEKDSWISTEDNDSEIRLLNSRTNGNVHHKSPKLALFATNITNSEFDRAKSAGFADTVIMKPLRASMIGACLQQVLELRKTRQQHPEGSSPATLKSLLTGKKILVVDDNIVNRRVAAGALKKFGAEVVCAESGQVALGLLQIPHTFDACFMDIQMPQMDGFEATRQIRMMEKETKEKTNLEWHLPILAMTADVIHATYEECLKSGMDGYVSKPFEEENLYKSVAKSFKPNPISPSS

Compound	E. coli receptor activation assay (CRE1/AHK4)	E. coli receptor activation assay (AHK3)
O=C(NCc1ccccc1)Nc1cnns1 [TD-BA]	~ 50 μM	–
O=C(Nc1ccccc1)Nc1cnns1 [TDZ, 1-phenyl-3-(1,2,3-thiadiazol-5-yl) urea]	~ 1 μM	~ 10 nM
C/C(=C\CNc1ncnc2[nH]cnc12)CO [tZ, trans-zeatin]	~ 1 μM	~ 10 nM

From publication PMC7824111, “Targeting Cytokinin Homeostasis in Rapid Cycling Brassica rapa with Plant Growth Regulators INCYDE and TD-K” (Plants, 2020)
